Results from patent US20120289501A1, “Benzene-fused 6-membered oxygen-containing heterocyclic derivatives of bicyclic heteroaryls” (NOVARTIS AG, priority 2009, published 2012).

Each compound was assayed against IGF1R (Homo sapiens, UniProt P08069) (assay: Cellular IGF-1R assay: inhibition of IGF1R phosphorylation in transduced Hek293 cells, capture ELISA (MSD)).
Assay type: cell-based
Set-up: Hek293 cells transduced with the corresponding receptors; expressed in transfected cells; host or cells: Hek293 (Hek293-IGF1R)
Method: In this assay the activity of the compounds of the invention against Insulin-like growth factor I (IGF-1) induced autophosphorylation of the IGF-IR is determined. The assay is conducted as follows: Compound-mediated inhibition of IGF1R and INSR phosphorylation in Hek293 cells transduced with the corresponding receptors is assessed in a capture ELISA format using the MSD (Meso Scale Discovery) platform. Briefly, 30′000 cells washed and diluted in starvation medium (DMEM high glucose supplemented with 0.1% BSA) are seeded in 90 μL per well into 96-well plates pre-coated with poly-D-lysine (0.1 mg/mL in PBS/0). After 24 h incubation at 37° C. and 5% CO2, dose-response effects are determined with 3-fold serial compound dilutions, starting at 10 μM. The final vehicle concentration is 0.1% DMSO in all wells. Following pre-incubation with compounds for 1 h, receptor phosphorylation is triggered by a 10 min exposure to 1.0 ng/μL IGF for Hek293-IGF1R cells, and 5.0 ng/μL insulin for Hek293-InsR cells. Cell lysis is achieved by addition of 80 μL MSD lysis buffer per aspirated well, incubation on ice for 20 min, and a freeze-thaw cycle. Target phosphorylation is then assessed by transferring volumes corresponding to approx. 6 μg Hek293-IGF1R or 0.6 μg Hek293-InsR lysates to MSD assay plates pre-coated with total-IGF1R or total-InsR Abs, respectively. After incubation for 2 h at rt, wells are exposed for 1 hr to a rabbit monoclonal antibody (CST #3024, 1:1000) detecting pIGF1R(Tyr1135/1136) as well as pINSR(Tyr1150/1151). Immune complexes are detected by a SULFO-Tag™-coupled anti-rabbit IgG antibody in the presence of 150 μL MSD read-buffer. Light emission at 620 nm triggered by application of electric current is recorded on a MSD SectorImager 6000. Acquired raw data (mean Ru-ECL units) are processed in an Excel analysis template. The plate blank (MSD lysis buffer) is subtracted from all data points. The effect of a particular test compound concentration on receptor phosphorylation is expressed relative to the window defined by ligand-stimulated vs unstimulated control cells (set as 100%). IC50 values [nM] are determined using 4-parametric curve-fitting (XLfit software, V4.3.2). Alternatively, the assay can be conducted with a slightly different format; Compound-mediated inhibition of IGF-1R and InsR phosphorylation in HEK293 cells overexpressing the corresponding receptors were assessed by quantitative Western blot using an Odyssey infrared imager as readout.
Compound-mediated inhibition of IGF1R and INSR phosphorylation in Hek293 cells transduced with the corresponding receptors is assessed in a capture ELISA format using the MSD (Meso Scale Discovery) platform. Briefly, 30′000 cells washed and diluted in starvation medium (DMEM high glucose supplemented with 0.1% BSA) are seeded in 90 μL per well into 96-well plates pre-coated with poly-D-lysine (0.1 mg/mL in PBS/O). After 24 h incubation at 37° C. and 5% CO2, dose-response effects are determined with 3-fold serial compound dilutions, starting at 10 μM. The final vehicle concentration is 0.1% DMSO in all wells. Following pre-incubation with compounds for 1 h, receptor phosphorylation is triggered by a 10 min exposure to 1.0 ng/μL IGF for Hek293-IGF1R cells, and 5.0 ng/μL insulin for Hek293-InsR cells. Cell lysis is achieved by addition of 80 μL MSD lysis buffer per aspirated well, incubation on ice for 20 min, and a freeze-thaw cycle. Target phosphorylation is then assessed by transferring volumes corresponding to approx. 6 μg Hek293-IGF1R or 0.6 μg Hek293-lnsR lysates to MSD assay plates pre-coated with total-IGF1R or total-lnsR Abs, respectively. After incubation for 2 h at rt, wells are exposed for 1 hr to a rabbit monoclonal antibody (CST #3024, 1:1000) detecting pIGF1R(Tyr1135/1136) as well as pINSR(Tyr1150/1151). Immune complexes are detected by a SULFO-Tag™-coupled anti-rabbit IgG antibody in the presence of 150 μL MSD read-buffer. […]

Chain of IGF1R (P08069 31-1367): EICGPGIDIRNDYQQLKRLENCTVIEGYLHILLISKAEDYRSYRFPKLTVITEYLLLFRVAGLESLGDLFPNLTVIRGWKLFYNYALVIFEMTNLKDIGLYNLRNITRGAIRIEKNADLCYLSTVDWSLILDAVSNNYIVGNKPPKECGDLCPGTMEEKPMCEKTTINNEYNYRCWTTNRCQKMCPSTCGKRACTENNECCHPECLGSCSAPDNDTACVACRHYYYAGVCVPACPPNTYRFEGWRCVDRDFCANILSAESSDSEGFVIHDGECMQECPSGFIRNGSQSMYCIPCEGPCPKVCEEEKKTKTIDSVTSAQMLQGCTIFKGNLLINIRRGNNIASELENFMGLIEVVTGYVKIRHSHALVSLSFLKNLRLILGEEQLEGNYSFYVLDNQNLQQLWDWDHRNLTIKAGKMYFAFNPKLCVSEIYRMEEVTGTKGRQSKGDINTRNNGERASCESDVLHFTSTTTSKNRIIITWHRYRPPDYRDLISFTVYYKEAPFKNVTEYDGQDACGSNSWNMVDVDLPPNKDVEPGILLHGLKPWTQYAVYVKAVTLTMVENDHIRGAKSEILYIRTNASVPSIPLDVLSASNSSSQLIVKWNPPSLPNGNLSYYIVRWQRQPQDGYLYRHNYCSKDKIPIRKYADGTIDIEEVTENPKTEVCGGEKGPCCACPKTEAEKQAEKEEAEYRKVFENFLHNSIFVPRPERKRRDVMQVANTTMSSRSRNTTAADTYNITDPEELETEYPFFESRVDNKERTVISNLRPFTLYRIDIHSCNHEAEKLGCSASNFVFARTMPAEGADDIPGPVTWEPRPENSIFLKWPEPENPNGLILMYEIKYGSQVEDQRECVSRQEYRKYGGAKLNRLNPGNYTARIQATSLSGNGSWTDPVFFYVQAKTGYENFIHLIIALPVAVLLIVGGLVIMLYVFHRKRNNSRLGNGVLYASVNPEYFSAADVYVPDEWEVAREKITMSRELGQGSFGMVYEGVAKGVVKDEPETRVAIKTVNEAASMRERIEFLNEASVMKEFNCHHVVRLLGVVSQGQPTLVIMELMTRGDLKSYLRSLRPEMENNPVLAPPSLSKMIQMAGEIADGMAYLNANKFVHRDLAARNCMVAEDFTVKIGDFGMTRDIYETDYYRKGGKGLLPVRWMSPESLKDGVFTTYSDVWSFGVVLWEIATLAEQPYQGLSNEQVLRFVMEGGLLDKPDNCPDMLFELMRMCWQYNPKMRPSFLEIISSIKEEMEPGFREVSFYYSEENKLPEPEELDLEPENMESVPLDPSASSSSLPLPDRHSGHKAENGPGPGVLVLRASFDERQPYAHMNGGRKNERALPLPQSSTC

First: NC(=O)[C@@H]1CCCN1C[C@H]1C[C@@H](c2nc(-c3ccc4c(c3)OC(c3ccccc3)CC4)c3c(N)nccn32)C1 (mixture of isomers) [Example 4, 1-{cis-3,8-Amino-1-((R)-2-phenyl-chroman-7-yl)-imidazo[1,5-a]pyrazin-3-yl]-cyclobutylmethyl}-(S)-pyrrolidine-2-carboxylic acid amide and 1-{cis-3-[8-amino-1-((S)-2-phenyl-chroman-7-yl)-imidazo[1,5-a]pyrazin-3-yl]-cyclobutylmethyl}-(S)-pyrrolidine-2-carboxylic acid amide]
Second: Nc1nccn2c1c(-c1ccc3c(c1)OC(c1ccccc1)CC3)nc2[C@H]1C[C@@H](CO)C1 (mixture of isomers) [Example 3, (R,S)-{cis-3-[8-Amino-1-(2-phenyl-chroman-7-yl)-imidazo[1,5-a]pyrazin-3-yl]-cyclobutyl}-methanol]
The IC50 of the first is 4.6-fold higher: 0.346 µM for the first, 0.076 µM for the second.

First: Nc1ncnc2c1c(-c1ccc3c(c1)OC(c1ccccc1)CC3)cn2[C@H]1C[C@@H](CN2CCC[C@H]2CO)C1 (mixture of isomers) [Example 14, (1-{cis-3-[4-Amino-5-((R)-2-phenyl-chroman-7-yl)-pyrrolo[2,3-d]pyrimidin-7-yl]-cyclobutylmethyl}-(S)-pyrrolidin-2-yl)-methanol and (1-{cis-3-[4-amino-5-[((S)-2-phenyl-chroman-7-yl)-pyrrolo[2,3-d]pyrimidin-7-yl]-cyclobutylmethyl}-(S)-pyrrolidin-2-yl)-methanol]
Second: Nc1ncnc2c1c(-c1ccc3c(c1)OC(c1ccccc1)CC3)cn2[C@H]1C[C@@H](CO)C1 (mixture of isomers) [Example 1, (R,S)-{cis-3-[4-Amino-5-(2-phenyl-chroman-7-yl)-pyrrolo[2,3-d]pyrimidin-7-yl]-cyclobutyl}-methanol]
The IC50 of the first is lower: < 0.005 µM for the first, 0.011 to 0.022 µM for the second. The first is the more potent here.

Compared with `Nc1ncnc2c1c(-c1ccc3c(c1)OC(C1CCCO1)CC3)cn2C1CC(O)(CO)C1` (mixture of isomers) [Example 29, (E)-3-{4-Amino-5-[2-(tetrahydro-furan-2-yl)-chroman-7-yl]-pyrrolo[2,3-d]pyrimidin-7-yl}-1-hydroxymethyl-cyclobutanol], `Nc1ncnc2c1c(-c1ccc3c(c1)OC(c1ccccc1)CC3)cn2[C@H]1C[C@@](O)(CO)C1` (mixture of isomers) [Example 8, (R,S)-(E)-3-[4-Amino-5-(2-phenyl-chroman-7-yl)-pyrrolo[2,3-d]pyrimidin-7-yl]-1-hydroxymethyl-cyclobutanol] is 1.9-fold higher in IC50: 0.05 µM for the first, 0.095 µM for the second. The first is the more potent here.

First: Nc1ncnc2c1c(-c1ccc3c(c1)OC(C1CCCO1)CC3)cn2C1CC(CN2CC3CC2CS3(=O)=O)C1 (mixture of isomers) [Example 66, 7-[cis-3-((S,S)-2,2-dioxo-2λ6-thia-5-aza-bicyclo[2,2,1]hept-5-ylmethyl)-cyclobutyl]-5-[2-trans-(tetrahydro-furan-2-yl-chroman-7-yl)-7H-pyrrolo[2,3-d]pyrimidin-4-ylamine]
Second: Nc1ncnc2c1c(-c1ccc3c(c1)OC(c1ccccc1)CC3)cn2[C@H]1C[C@@H](CN2CCS(=O)(=O)CC2)C1 (mixture of isomers) [Example 6, (R,S)-7-[cis-3-(1,1-Dioxo-thiomorpholin-4-ylmethyl)-cyclobutyl]-5-(2-phenyl-chroman-7-yl)-7H-pyrrolo[2,3-d]pyrimidin-4-ylamine]
The IC50 of the first is 8-fold higher: 0.024 µM for the first, 0.003 µM for the second.

Compared with `Nc1ncnc2c1c(-c1ccc3c(c1)OC(C1CCCO1)CC3)cn2C1CC(CN2CC3CC2CS3(=O)=O)C1` (mixture of isomers) [Example 67, 7-[cis-3-((S,S)-2,2-dioxo-2λ6-thia-5-aza-bicyclo[2,2,1]hept-5-ylmethyl)-cyclobutyl]-5-[2-cis-(tetrahydro-furan-2-yl-chroman-7-yl)-7H-pyrrolo[2,3-d]pyrimidin-4-ylamine], `Nc1ncnc2c1c(-c1ccc3c(c1)OC(c1ccccc1)CC3)cn2[C@H]1C[C@@H](CN2[C@@H]3CC[C@H]2C[C@H](O)C3)C1` (mixture of isomers) [Example 36, (R,S)-8-{cis-3-[4-Amino-5-(2-phenyl-chroman-7-yl)-pyrrolo[2,3-d]pyrimidin-7-yl]-cyclobutylmethyl}-8-aza-bicyclo[3.2.1]octan-3-ol] is 5.1-fold higher in IC50: 0.017 µM for the first, 0.087 µM for the second. The first is the more potent here.

`Nc1ncnc2c1c(-c1ccc3c(c1)OC(c1ccccc1)CC3)cn2[C@H]1C[C@H](CO)C1` (mixture of isomers) [Example 2, (R,S)-{Trans-3-[4-amino-5-(2-phenyl-chroman-7-yl)-pyrrolo[2,3-d]pyrimidin-7-yl]-cyclobutyl}-methanol] and `NC[C@H]1C[C@@H](n2cc(-c3ccc4c(c3)OC(c3ccccc3)CC4)c3c(N)ncnc32)C1` (mixture of isomers) [Example 13, (R,S)-7-(cis-3-Aminomethyl-cyclobutyl)-5-(2-phenyl-chroman-7-yl)-7H-pyrrolo[2,3-d]pyrimidin-4-ylamine] cannot be ordered by IC50: 0.03 to 0.103 µM for the first, 0.039 µM for the second.

Compared with `Cc1nccn1C[C@H]1C[C@@H](c2nc(-c3ccc4c(c3)OC(c3ccccc3)CC4)c3c(N)nccn32)C1` (mixture of isomers) [Example 7, (R,S)-3-[cis-3-(2-Methyl-imidazol-1-ylmethyl)-cyclobutyl]-1-(2-phenyl-chroman-7-yl)-imidazo[1,5-a]pyrazin-8-ylamine], `Nc1ncnc2c1c(-c1ccc3c(c1)OC(c1ccccc1)CC3)cn2[C@H]1C[C@@H](Cn2ccnc2CO)C1` (mixture of isomers) [Example 18, (R,S)-(1-{cis-3-[4-Amino-5-(2-phenyl-chroman-7-yl)-pyrrolo[2,3-d]pyrimidin-7-yl]-cyclobutylmethyl}-1H-imidazol-2-yl)-methanol] is 1.9-fold lower in IC50: 0.026 µM for the first, 0.014 µM for the second.

First: Nc1ncnc2c1c(-c1ccc3c(c1)OC(c1ccccc1)CC3)cn2[C@H]1C[C@](O)(CO)C1 (mixture of isomers) [Example 9, (R,S)—(Z)-3-[4-amino-5-(2-phenyl-chroman-7-yl)-pyrrolo[2,3-d]pyrimidin-7-yl]-1-hydroxymethyl-cyclobutanol]
Second: CC(C)C(=O)N[C@H]1CC[C@@H](n2cc(-c3ccc4c(c3)OC(c3ccccc3)CC4)c3c(N)ncnc32)CC1 (mixture of isomers) [Example 52, (±)-N-(cis-4-(4-amino-5-(2-phenylchroman-7-yl)-7H-pyrrolo[2,3-d]pyrimidin-7-yl)cyclohexyl)isobutyramide]
The IC50 of the first is 1.6-fold higher: 0.158 µM for the first, 0.099 µM for the second.

First: Nc1ncnc2c1c(-c1ccc3c(c1)OC(c1ccccc1)C=C3)cn2[C@H]1C[C@@H](CO)C1 (mixture of isomers) [Example 23, (R,S)-{cis-3-[4-Amino-5-(2-phenyl-2H-chromen-7-yl)-pyrrolo[2,3-d]pyrimidin-7-yl]-cyclobutyl}-methanol]
Second: Nc1ncnc2c1c(-c1ccc3c(c1)OC(c1ccccc1)CC3)cn2[C@H]1C[C@@H](CN2CCNC(=O)C2)C1 (mixture of isomers) [Example 28, (R,S)-4-{3-[4-amino-5-(2-phenyl-chroman-7-yl)-pyrrolo[2,3-d]pyrimidin-7-yl]-cyclobutylmethyl}-piperazin-2-one]
The IC50 of the first is 2.8-fold lower: 0.012 µM for the first, 0.034 µM for the second. The first is the more potent here.

`Nc1ncnc2c1c(-c1ccc3c(c1)OC(c1ccccc1)CC3)cn2[C@H]1CC[C@@H](NC(=O)C2CC2)CC1` (mixture of isomers) [Example 51, (±)-N-(cis-4-(4-amino-5-(2-phenylchroman-7-yl)-7H-pyrrolo[2,3-d]pyrimidin-7-yl)cyclohexyl)cyclopropanecarboxamide] gave an IC50 of 0.136 µM.
